In PubChem BioAssay (NCI):
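Dose response: 5 concentrations. Exposure: 48 h. Format: 96-well plates. Endpoint: linear interpolation; highest concentration if not reached. TGI is the concentration that stops growth completely.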

Legend:
Experiment in all cases: NCI-60 cell line screen, 48 h
OVCAR-3 ovarian = test system: OVCAR-3 ovarian
786-0 renal = test system: 786-0 renal
UACC-257 melanoma = test system: UACC-257 melanoma
SK-OV-3 ovarian = test system: SK-OV-3 ovarian
MOLT-4 leukemia = test system: MOLT-4 leukemia
MDA-MB-231 breast = test system: MDA-MB-231 breast
EKVX NSCLC = test system: EKVX NSCLC
SF-295 CNS = test system: SF-295 CNS
MALME-3M melanoma = test system: MALME-3M melanoma
BT-549 breast = test system: BT-549 breast
HCT-116 colon = test system: HCT-116 colon
HCT-15 colon = test system: HCT-15 colon
SF-268 CNS = test system: SF-268 CNS
RPMI-8226 leukemia = test system: RPMI-8226 leukemia
KM12 colon = test system: KM12 colon
A498 renal = test system: A498 renal
HCC-2998 colon = test system: HCC-2998 colon
CCRF-CEM leukemia = test system: CCRF-CEM leukemia
SR leukemia = test system: SR leukemia

| Compound | TGI (OVCAR-3 ovarian) [µM] | TGI (786-0 renal) [µM] | TGI (UACC-257 melanoma) [µM] | TGI (SK-OV-3 ovarian) [µM] | TGI (MOLT-4 leukemia) [µM] | TGI (MDA-MB-231 breast) [µM] | TGI (EKVX NSCLC) [µM] | TGI (SF-295 CNS) [µM] | TGI (MALME-3M melanoma) [µM] | TGI (BT-549 breast) [µM] | TGI (HCT-116 colon) [µM] | TGI (HCT-15 colon) [µM] | TGI (SF-268 CNS) [µM] | TGI (RPMI-8226 leukemia) [µM] | TGI (KM12 colon) [µM] | TGI (A498 renal) [µM] | TGI (HCC-2998 colon) [µM] | TGI (CCRF-CEM leukemia) [µM] | TGI (SR leukemia) [µM] |
| --- | --- | --- | --- | --- | --- | --- | --- | --- | --- | --- | --- | --- | --- | --- | --- | --- | --- | --- | --- |
| CCCCSC1=N/C(=C\c2ccccc2O)C(Cl)=N1 | > 100 | > 100 | > 100 | > 100 | > 100 | > 100 | > 100 | > 100 | > 100 | > 100 | > 100 | > 100 | > 100 | > 100 | > 100 | > 100 | > 100 |  |  |
| Cc1cccc2c1Oc1ncccc1C2NC(=O)CN(C)C (stereo not given) | > 10 | > 10 | > 10 | > 10 | > 10 |  | > 10 | > 10 | > 10 | > 10 |  | > 10 | > 10 |  | > 10 |  | > 10 | > 10 | > 10 |
| CC(=O)Oc1c(OC(C)C)cc(=O)n2ccsc12 | > 100 | > 100 | > 100 | > 100 | > 100 | > 100 | > 100 | > 100 | > 100 | > 100 | > 100 | > 100 | > 100 | > 100 | > 100 | > 100 | > 100 | 70.4 |  |
| COc1ccc2c(C=O)c3n(c(=O)c2c1OC)CCc1cc2c(cc1-3)OCO2 | > 100 | > 100 | > 100 | > 100 | > 100 | > 100 | > 100 | > 100 | > 100 | > 100 | > 100 | > 100 | > 100 | 30.5 | > 100 | > 100 | 94.1 | > 100 |  |
| C/C(=C\CNc1ncnc2c1ncn2CCC#N)CO | > 100 | > 100 | > 100 | > 100 | > 100 | > 100 | > 100 | > 100 | > 100 |  | > 100 |  | > 100 | > 100 | > 100 |  | > 100 | > 100 | > 100 |
| Cc1cc(NS(=O)(=O)c2ccc(NC(NC(=O)OC(C)C)(C(F)(F)F)C(F)(F)F)cc2)nc(C)n1 | > 100 | > 100 | > 100 | > 100 | > 100 | > 100 | > 100 | > 100 | > 100 |  | > 100 | > 100 | > 100 | > 100 | > 100 | > 100 | > 100 | > 100 | > 100 |
| NS(=O)(=O)C1CCCCC1C(=O)NNC(=O)C(=O)Nc1nc(=S)[nH][nH]1 (stereo not given) |  |  | > 100 | > 100 | > 100 |  | > 100 | > 100 |  |  | > 100 | > 100 | > 100 | > 100 | > 100 | > 100 | > 100 | > 100 | > 100 |
| CC(C)[C@H](NC(=O)OCc1ccccc1)C(=O)N[C@H](/C=C/C(=O)OC(C)(C)C)CO | > 100 | > 100 | > 100 | > 100 | > 100 | > 100 | > 100 | > 100 | > 100 |  | > 100 | > 100 | > 100 |  | > 100 | > 100 | > 100 | > 100 | > 100 |
| CCCSC1=N/C(=C\c2ccco2)C(=O)N1 | > 100 | > 100 | > 100 | > 100 | > 100 | > 100 | > 100 | > 100 | > 100 | > 100 | > 100 | > 100 | > 100 | > 100 | > 100 | > 100 | > 100 |  |  |
| CCc1nc2cc(F)ccc2[nH]c1=O | > 100 | > 100 | > 100 | > 100 | > 100 | > 100 | > 100 | > 100 | > 100 | > 100 | > 100 | > 100 | > 100 | > 100 | > 100 | > 100 | > 100 | > 100 |  |
| COC(=O)C1CCC(=S)N1C(C)=O (stereo not given) | > 100 | > 100 | > 100 | > 100 | > 100 | > 100 | > 100 | > 100 | > 100 | > 100 | > 100 | > 100 | > 100 | > 100 | > 100 | > 100 | > 100 |  |  |
| N/N=C(\N)SCc1ccc(N=C=S)cc1 |  | > 100 | > 100 | > 100 | > 100 | > 100 | > 100 | > 100 | > 100 |  | > 100 | > 100 | > 100 | > 100 | > 100 | > 100 | > 100 | > 100 | > 100 |
| Nn1c(=S)[nH]nc(/C=C/c2c(O)ccc3ccccc23)c1=O | 22.1 | > 100 | 50.9 | 95.4 | 86.1 |  | 20.9 | 96.1 | 44.6 | 31.3 | 12.5 | 17.9 | 38.6 | > 100 | 59.5 | 69.9 | 54.5 | 9.7 | 87.1 |
| COc1c(-c2nc3nc(N4CCN(C)CC4)ccc3[nH]2)cc(OC)c2c1nc(CCl)n2C | 81.5 | > 100 | 78.3 | 76.6 | 58.3 | 46.1 | 39.2 | > 100 | 37.5 | 40.4 | > 100 | 90.6 | 55.7 | 43.1 | 30.8 |  | 31.2 | 62.1 |  |
| CSC(=NCCCN=C(NS(=O)(=O)c1ccc(Cl)cc1)SC)NS(=O)(=O)c1ccc(Cl)cc1 | 80 | > 100 | > 100 | > 100 | 33.2 | > 100 | 53.1 | > 100 | 72.7 |  | > 100 | > 100 | > 100 | > 100 |  | 73.1 | 83.6 | > 100 | > 100 |
| CCOC(=O)N/N=C(/N)Cc1ccc(Cl)cc1 | > 100 | > 100 | > 100 | > 100 | > 100 | > 100 | > 100 | > 100 |  | > 100 | > 100 | > 100 | > 100 | > 100 | > 100 |  | > 100 | > 100 |  |
| CCOC(=O)C1(NC(=O)OC(C)(C)C)CCc2[nH]oc(=O)c2C1 (stereo not given) | > 100 | > 100 | > 100 | > 100 | > 100 | > 100 | > 100 | > 100 | > 100 | > 100 | > 100 | > 100 |  | > 100 | > 100 | > 100 | > 100 | > 100 |  |
| Nc1nc(Nc2cc(F)c(Cl)c(F)c2)cc(=O)[nH]1 | > 100 | > 100 | > 100 | > 100 | > 100 | > 100 | > 100 | > 100 | > 100 | > 100 | > 100 | > 100 | > 100 | > 100 | > 100 | > 100 | 61.5 | > 100 |  |
| O=C(Cn1c(-c2ccccc2)cc2ccccc21)N1CCOCC1 | > 100 | > 100 | > 100 | > 100 | > 100 | > 100 | > 100 | > 100 | > 100 |  | > 100 | > 100 | > 100 | > 100 | > 100 | > 100 | > 100 | > 100 |  |
| CCCCN1/C(=N/Nc2n[nH]c(=O)c3ccccc23)SCC1c1ccc(Cl)cc1 (stereo not given) | 37.6 | 42.2 | 45.6 | > 100 |  | 55 | 41.2 | 22.6 | 62 |  | 44.8 | 28.7 | 43.9 | > 100 | 19.6 | 66.2 |  |  | 24.6 |
| CCOC(=O)c1sc2nc(SC)nc3c2c1NCN3c1ccccc1Cl | > 100 | > 100 | > 100 | > 100 | > 100 | > 100 |  | > 100 | 74.4 | > 100 | > 100 | > 100 | > 100 | > 100 | > 100 | > 100 | > 100 | > 100 |  |
| CC1=C(C(=O)OC(C)(C)C)C(c2ccc([N+](=O)[O-])cc2)C(C(=O)OC(C)(C)C)=C(C)N1 | 36.7 | 38.7 | 40.6 | 73.3 | 41.6 | 41.4 | 38.4 | 46.2 |  | 44.1 | 36.4 | 62.5 | 56.4 | 54 | 38.5 | 37.6 | 27.2 |  |  |
| N=c1sc(N2CCOCC2)nn1CC(=O)c1ccccc1 | > 100 | > 100 | > 100 | > 100 | > 100 | > 100 | > 100 | > 100 | > 100 | > 100 | > 100 | > 100 | > 100 | > 100 | > 100 |  | > 100 | > 100 |  |
| Nc1nc2c(ccc3ccccc32)[nH]1 | > 10 |  |  | > 10 | > 10 | > 10 | > 10 | > 10 | > 10 |  | > 10 | > 10 | > 10 | > 10 | > 10 | > 10 | > 10 | > 10 | > 10 |
| O=C1C[C@@]23CCC4(CC2=CCC[C@H]3O1)OCCO4 | > 100 | > 100 | > 100 | > 100 | > 100 | > 100 | > 100 | > 100 | > 100 |  | > 100 | > 100 | > 100 | > 100 | > 100 | > 100 | > 100 |  | > 100 |
| CCN(CCCl)c1ccc(NC(=O)c2cc(C(=O)NCCN(C)C)cc(C(=O)Nc3ccc(N(CC)CCCl)cc3)c2)cc1 |  | 3.12 | 65.6 | 19.5 | 5.99 | 34.9 |  | 72.3 | 34.5 |  | 22.3 | > 100 | 61.2 | 23.6 | 25.4 | 43.1 | 35 | 3.27 | > 100 |
| O=C(Nc1nc2ccc([N+](=O)[O-])cc2s1)c1cc([N+](=O)[O-])ccc1Cl | 9.64 | 11.7 | 19.2 | 13.6 | > 100 | 21.3 | 8.55 | 14.8 | 10.4 | 6.83 | 5.33 | 8.3 | 11.7 | 9.8 | 50.5 | 7.42 |  |  |  |
| Cc1nnc(N)s/c1=N/O | > 100 | > 100 | > 100 | > 100 | > 100 | > 100 | > 100 | > 100 | > 100 | > 100 | > 100 | > 100 | > 100 | > 100 | > 100 | > 100 | > 100 | > 100 |  |
